# Laboratory results: PubChem BioAssay (NCI)
#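 Step 1: Grow cells in 96-well plates. Step 2: Expose to compound for 48 hours at 5 concentrations. Step 3: Interpolate endpoints linearly; if unreached, use highest concentration. At the TGI there is no net growth.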
# Columns and labels:
# Assay in all cases: NCI anticancer screen, dose series, 48 h
# [1] = system: OVCAR-8 ovarian
# [2] = system: SR leukemia
# [3] = system: IGROV1 ovarian
# [4] = system: LXFL 529 NSCLC
# [5] = system: NCI-H23 lung
# [6] = system: SNB-19 CNS
# [7] = system: OVCAR-5 ovarian
# [8] = system: HT29 colon
# [9] = system: HOP-92 NSCLC
# [10] = system: EKVX NSCLC
# [11] = system: DMS 114 small cell lung
# [12] = system: M14 melanoma
# [13] = system: DMS 273 small cell lung
# [14] = system: HCT-116 colon
# [15] = system: HCT-15 colon
# [16] = system: HL-60(TB) leukemia
# [17] = system: TK-10 renal
# [18] = system: HCC-2998 colon
# [19] = system: SF-295 CNS
# [20] = system: DLD-1 colon
# [21] = system: XF 498 CNS
# [22] = system: SNB-75 CNS
# [23] = system: RPMI-8226 leukemia
# [24] = system: A549 NSCLC
# [25] = system: SNB-78 CNS
# [26] = system: M19-MEL melanoma
# [27] = system: NCI-H522 lung
# [28] = system: MALME-3M melanoma
# [29] = system: SK-MEL-2 melanoma
# [30] = system: 786-0 renal
# [31] = system: UACC-62 melanoma
# [32] = system: RXF-631 renal
# [33] = system: SK-OV-3 ovarian
# [34] = system: KM20L2 colon
# [35] = system: NCI-H460 lung
# [36] = system: SF-268 CNS
# [37] = system: RXF 393 renal
# [38] = system: A498 renal
# [39] = system: UO-31 renal
# [40] = system: SF-539 CNS
# [41] = system: U251 CNS
# [42] = system: KM12 colon
# [43] = system: K-562 leukemia
# [44] = system: HOP-18 NSCLC
# [45] = system: OVCAR-3 ovarian
# [46] = system: UACC-257 melanoma
# [47] = system: COLO 205 colon
# [48] = system: SK-MEL-5 melanoma
# [49] = system: CCRF-CEM leukemia
# [50] = system: SK-MEL-28 melanoma
# [51] = system: LOX IMVI melanoma
# [52] = system: ACHN renal
# [53] = system: SW-620 colon
# [54] = system: SN12C renal
# [55] = system: MOLT-4 leukemia
# [56] = system: NCI-H226 lung
# [57] = system: CAKI-1 renal
# [58] = system: HOP-62 NSCLC
# [59] = system: OVCAR-4 ovarian
compound,measurement,setting,value
C/C=C(\CCOS(=O)(=O)c1ccc(C)cc1)[Si](C)(C)C,TGI,[1],> 100 µM
same,TGI,[2],> 100 µM
same,TGI,[3],> 100 µM
same,TGI,[4],> 100 µM
same,TGI,[5],> 100 µM
same,TGI,[6],> 100 µM
same,TGI,[7],> 100 µM
same,TGI,[8],> 100 µM
same,TGI,[9],> 100 µM
same,TGI,[10],> 100 µM
same,TGI,[11],> 100 µM
same,TGI,[12],> 100 µM
same,TGI,[13],> 100 µM
same,TGI,[14],> 100 µM
same,TGI,[15],> 100 µM
same,TGI,[16],> 100 µM
same,TGI,[17],> 100 µM
same,TGI,[18],> 100 µM
same,TGI,[19],> 100 µM
same,TGI,[20],> 100 µM
same,TGI,[21],> 100 µM
same,TGI,[22],> 100 µM
same,TGI,[23],> 100 µM
same,TGI,[24],> 100 µM
same,TGI,[25],> 100 µM
same,TGI,[26],> 100 µM
same,TGI,[27],> 100 µM
same,TGI,[28],> 100 µM
same,TGI,[29],> 100 µM
same,TGI,[30],> 100 µM
same,TGI,[31],> 100 µM
same,TGI,[32],> 100 µM
same,TGI,[33],> 100 µM
same,TGI,[34],> 100 µM
same,TGI,[35],> 100 µM
same,TGI,[36],> 100 µM
same,TGI,[37],> 100 µM
same,TGI,[38],> 100 µM
same,TGI,[39],> 100 µM
same,TGI,[40],> 100 µM
same,TGI,[41],> 100 µM
same,TGI,[42],> 100 µM
same,TGI,[43],> 100 µM
same,TGI,[44],> 100 µM
same,TGI,[45],> 100 µM
same,TGI,[46],> 100 µM
same,TGI,[47],> 100 µM
same,TGI,[48],> 100 µM
same,TGI,[49],27.3 µM
same,TGI,[50],> 100 µM
same,TGI,[51],> 100 µM
same,TGI,[52],> 100 µM
same,TGI,[53],> 100 µM
same,TGI,[54],> 100 µM
same,TGI,[55],> 100 µM
O=C1c2ccccc2C(=O)C1C(c1ccc(F)cc1)C1C(=O)c2ccccc2C1=O,TGI,[1],> 100 µM
same,TGI,[2],> 100 µM
same,TGI,[4],> 100 µM
same,TGI,[5],> 100 µM
same,TGI,[6],> 100 µM
same,TGI,[7],> 100 µM
same,TGI,[8],> 100 µM
same,TGI,[56],> 100 µM
same,TGI,[9],> 100 µM
same,TGI,[10],> 100 µM
same,TGI,[11],> 100 µM
same,TGI,[12],> 100 µM
same,TGI,[13],> 100 µM
same,TGI,[14],> 100 µM
same,TGI,[15],> 100 µM
same,TGI,[16],> 100 µM
same,TGI,[17],> 100 µM
same,TGI,[18],> 100 µM
same,TGI,[19],> 100 µM
same,TGI,[20],> 100 µM
same,TGI,[21],> 100 µM
same,TGI,[22],> 100 µM
same,TGI,[23],> 100 µM
same,TGI,[24],> 100 µM
same,TGI,[25],> 100 µM
same,TGI,[26],> 100 µM
same,TGI,[27],> 100 µM
same,TGI,[28],> 100 µM
same,TGI,[29],> 100 µM
same,TGI,[30],> 100 µM
same,TGI,[31],> 100 µM
same,TGI,[32],> 100 µM
same,TGI,[33],> 100 µM
same,TGI,[34],> 100 µM
same,TGI,[35],> 100 µM
same,TGI,[36],> 100 µM
same,TGI,[37],71.3 µM
same,TGI,[39],> 100 µM
same,TGI,[40],> 100 µM
same,TGI,[41],> 100 µM
same,TGI,[42],> 100 µM
same,TGI,[43],> 100 µM
same,TGI,[57],> 100 µM
same,TGI,[44],> 100 µM
same,TGI,[45],> 100 µM
same,TGI,[46],> 100 µM
same,TGI,[47],> 100 µM
same,TGI,[48],> 100 µM
same,TGI,[49],> 100 µM
same,TGI,[50],> 100 µM
same,TGI,[58],> 100 µM
same,TGI,[59],> 100 µM
same,TGI,[51],> 100 µM
same,TGI,[52],> 100 µM
same,TGI,[53],> 100 µM
same,TGI,[54],> 100 µM
same,TGI,[55],> 100 µM
COc1ccc2c3c(c(C(=O)c4ccccc4)oc13)CCC2,TGI,[1],> 100 µM
same,TGI,[3],> 100 µM
same,TGI,[4],> 100 µM
same,TGI,[5],41.4 µM
same,TGI,[6],> 100 µM
same,TGI,[8],> 100 µM
same,TGI,[10],> 100 µM
same,TGI,[11],> 100 µM
same,TGI,[12],> 100 µM
same,TGI,[13],> 100 µM
same,TGI,[14],> 100 µM
same,TGI,[15],> 100 µM
same,TGI,[16],> 100 µM
same,TGI,[17],> 100 µM
same,TGI,[18],> 100 µM
same,TGI,[19],> 100 µM
same,TGI,[20],> 100 µM
same,TGI,[21],> 100 µM
same,TGI,[22],> 100 µM
same,TGI,[23],> 100 µM
same,TGI,[24],> 100 µM
same,TGI,[25],> 100 µM
same,TGI,[26],> 100 µM
same,TGI,[30],> 100 µM
same,TGI,[31],> 100 µM
same,TGI,[32],> 100 µM
same,TGI,[33],> 100 µM
same,TGI,[34],> 100 µM
same,TGI,[35],> 100 µM
same,TGI,[37],31.3 µM
same,TGI,[38],> 100 µM
same,TGI,[40],> 100 µM
same,TGI,[41],> 100 µM
same,TGI,[43],> 100 µM
same,TGI,[57],> 100 µM
same,TGI,[44],> 100 µM
same,TGI,[45],> 100 µM
same,TGI,[46],> 100 µM
same,TGI,[47],> 100 µM
same,TGI,[48],> 100 µM
same,TGI,[49],> 100 µM
same,TGI,[50],> 100 µM
same,TGI,[58],> 100 µM
same,TGI,[59],> 100 µM
same,TGI,[51],> 100 µM
same,TGI,[52],> 100 µM
same,TGI,[53],> 100 µM
same,TGI,[54],> 100 µM
same,TGI,[55],> 100 µM
